Reference: the NIST ThermoML archive (doi:10.1021/je8004134)

Test: an = ratio of the nth substance listed, in mol/kg
Settings: 298.15 K, 101 kPa, Liquid; for speed of sound: Sing-around technique in a fixed-path interferometer; for mass density: Vibrating tube method

CC(=O)N(C)C [N,N-dimethylethanamide] + [Ni+2].[O-][Cl+3]([O-])([O-])[O-].[O-][Cl+3]([O-])([O-])[O-]
a2 = 0
Settings	mass density [kg/m3]	speed of sound [m/s]
–	936.168	1455.4

[O-][Cl+3]([O-])([O-])[O-].[O-][Cl+3]([O-])([O-])[O-].[Zn+2] [zinc perchlorate] + C[S+](C)[O-]
Settings	mass density [kg/m3]	speed of sound [m/s]
a1 = 0.02918	1101.58	1485.7
a1 = 0.03465	1102.78	1486
a1 = 0.05104	1106.39	1486.9
a1 = 0.06794	1110.13	1487.8
a1 = 0.08574	1114.1	1488.8
a1 = 0.1022	1117.8	1489.7
a1 = 0.119	1121.58	1490.7
a1 = 0.1435	1127.14	1492.2
a1 = 0.1685	1132.85	1493.7

CC(=O)N(C)C [N,N-dimethylethanamide] + [Cl][Cu][Cl]
a2 = 0
Settings	mass density [kg/m3]	speed of sound [m/s]
–	936.304	1455.4

C[S+](C)[O-] [dimethyl sulfoxide] + [Mn+2].[O-][Cl+3]([O-])([O-])[O-].[O-][Cl+3]([O-])([O-])[O-]
a2 = 0
Settings	mass density [kg/m3]	speed of sound [m/s]
–	1095.19	1484.1

[Ni+2].[O-][Cl+3]([O-])([O-])[O-].[O-][Cl+3]([O-])([O-])[O-] [nickel perchlorate] + CC(=O)N(C)C
Settings	mass density [kg/m3]	speed of sound [m/s]
a1 = 0.03452	943.693	1460.5
a1 = 0.06515	950.677	1464.3
a1 = 0.096	957.709	1468.2
a1 = 0.1279	964.983	1472.3
a1 = 0.1604	972.395	1476.5
a1 = 0.1898	979.089	1480.4
a1 = 0.2198	985.93	1484.6
a1 = 0.2504	992.904	1489

C[S+](C)[O-] [dimethyl sulfoxide] + [O-][Cl+3]([O-])([O-])[O-].[O-][Cl+3]([O-])([O-])[O-].[Zn+2]
a2 = 0
Settings	mass density [kg/m3]	speed of sound [m/s]
–	1095.2	1484.1

[Cl-].[Cl-].[Zn+2] [zinc chloride] + CC(=O)N(C)C
Settings	mass density [kg/m3]	speed of sound [m/s]
a1 = 0.05996	942.244	1456.9
a1 = 0.1117	947.615	1457.9
a1 = 0.1487	951.455	1458.7
a1 = 0.1875	955.473	1459.5
a1 = 0.223	959.152	1460.3
a1 = 0.2595	962.944	1461.2
a1 = 0.2955	966.681	1462.1
a1 = 0.3148	968.679	1462.5

[Cl][Mn][Cl] [manganese chloride] + CC(=O)N(C)C
Settings	mass density [kg/m3]	speed of sound [m/s]
a1 = 0.05753	942.406	1458.5
a1 = 0.1146	948.611	1461.2
a1 = 0.1691	954.924	1463.8
a1 = 0.222	961.136	1466.5
a1 = 0.2756	967.302	1469.4
a1 = 0.3266	973.327	1472.2
a1 = 0.3813	979.1	1475.5
a1 = 0.433	984.866	1478.6

[Cl][Co][Cl] [cobalt chloride] + C[S+](C)[O-]
Settings	mass density [kg/m3]	speed of sound [m/s]
a1 = 0.04252	1099.76	1485.1
a1 = 0.06132	1101.77	1485.6
a1 = 0.08074	1103.85	1486.2
a1 = 0.1018	1106.1	1486.7
a1 = 0.122	1108.29	1487.4
a1 = 0.1423	1110.49	1488.2
a1 = 0.1621	1112.63	1488.8
a1 = 0.1818	1114.77	1489.5
a1 = 0.202	1116.97	1490

[Mn+2].[O-][Cl+3]([O-])([O-])[O-].[O-][Cl+3]([O-])([O-])[O-] [manganese (II) perchlorate] + C[S+](C)[O-]
Settings	mass density [kg/m3]	speed of sound [m/s]
a1 = 0.0211	1099.48	1485.3
a1 = 0.02843	1100.98	1485.8
a1 = 0.037	1102.73	1486.2
a1 = 0.04758	1104.9	1486.8
a1 = 0.05763	1106.97	1487.5
a1 = 0.07358	1110.26	1488.3
a1 = 0.09456	1114.62	1489.7
a1 = 0.1139	1118.65	1490.8
a1 = 0.1337	1122.82	1492
a1 = 0.1566	1127.65	1493.4
a1 = 0.1754	1131.67	1494.6

[Cl][Cu][Cl] [copper chloride] + CC(=O)N(C)C
Settings	mass density [kg/m3]	speed of sound [m/s]
a1 = 0.04793	941.347	1456.2
a1 = 0.09502	946.26	1457.1
a1 = 0.139	950.849	1458
a1 = 0.1852	955.662	1458.9
a1 = 0.2306	960.406	1459.9
a1 = 0.2755	965.086	1460.9
a1 = 0.3194	969.661	1461.9
a1 = 0.364	974.319	1462.9

[Cl-].[Cl-].[Zn+2] [zinc chloride] + C[S+](C)[O-]
Settings	mass density [kg/m3]	speed of sound [m/s]
a1 = 0.05319	1100.61	1484.1
a1 = 0.0712	1102.49	1484.2
a1 = 0.0892	1104.34	1484.5
a1 = 0.107	1106.22	1484.8
a1 = 0.1251	1108.12	1485.2
a1 = 0.1517	1110.9	1485.9
a1 = 0.1776	1113.65	1486.6

CC(=O)N(C)C [N,N-dimethylethanamide] + [Mn+2].[O-][Cl+3]([O-])([O-])[O-].[O-][Cl+3]([O-])([O-])[O-]
a2 = 0
Settings	mass density [kg/m3]	speed of sound [m/s]
–	936.213	1455.4

CC(=O)N(C)C [N,N-dimethylethanamide] + [Co+2].[O-][Cl+3]([O-])([O-])[O-].[O-][Cl+3]([O-])([O-])[O-]
a2 = 0
Settings	mass density [kg/m3]	speed of sound [m/s]
–	936.233	1455.4

C[S+](C)[O-] [dimethyl sulfoxide] + [Ni+2].[O-][Cl+3]([O-])([O-])[O-].[O-][Cl+3]([O-])([O-])[O-]
a2 = 0
Settings	mass density [kg/m3]	speed of sound [m/s]
–	1095.19	1484.1

[Cl][Ni][Cl] [nickel chloride (NiCl2)] + C[S+](C)[O-]
Settings	mass density [kg/m3]	speed of sound [m/s]
a1 = 0.01103	1096.81	1485.1
a1 = 0.01653	1097.61	1485.5
a1 = 0.02222	1098.43	1486
a1 = 0.02764	1099.21	1486.3
a1 = 0.03328	1100.03	1486.7
a1 = 0.03812	1100.72	1487.1
a1 = 0.04374	1101.53	1487.4
a1 = 0.04953	1102.36	1487.8
a1 = 0.05501	1103.13	1488.2

C[S+](C)[O-] [dimethyl sulfoxide] + [Cl][Co][Cl]
a2 = 0
Settings	mass density [kg/m3]	speed of sound [m/s]
–	1095.19	1484.1

C[S+](C)[O-] [dimethyl sulfoxide] + [Cl][Cu][Cl]
a2 = 0
Settings	mass density [kg/m3]	speed of sound [m/s]
–	1095.2	1484.1

[Cu+2].[O-][Cl+3]([O-])([O-])[O-].[O-][Cl+3]([O-])([O-])[O-] [copper perchlorate] + CC(=O)N(C)C
Settings	mass density [kg/m3]	speed of sound [m/s]
a1 = 0.06523	950.245	1463.1
a1 = 0.09641	957.338	1466.4
a1 = 0.1434	968.019	1471.3
a1 = 0.1894	978.49	1476.5
a1 = 0.2336	988.543	1481.5
a1 = 0.2774	998.499	1486.9
a1 = 0.3204	1008.3	1492.2
a1 = 0.364	1018.21	1498.1

CC(=O)N(C)C [N,N-dimethylethanamide] + [Cl-].[Cl-].[Zn+2]
a2 = 0
Settings	mass density [kg/m3]	speed of sound [m/s]
–	936.22	1455.4

[Cu+2].[O-][Cl+3]([O-])([O-])[O-].[O-][Cl+3]([O-])([O-])[O-] [copper perchlorate] + C[S+](C)[O-]
Settings	mass density [kg/m3]	speed of sound [m/s]
a1 = 0.01425	1098.31	1485
a1 = 0.02779	1101.26	1485.9
a1 = 0.0419	1104.35	1486.8
a1 = 0.05636	1107.54	1487.7
a1 = 0.07067	1110.7	1488.7
a1 = 0.08366	1113.58	1489.5
a1 = 0.09783	1116.73	1490.4
a1 = 0.1114	1119.78	1491.4
a1 = 0.1251	1122.85	1492.2
a1 = 0.1384	1125.85	1493.3

[Co+2].[O-][Cl+3]([O-])([O-])[O-].[O-][Cl+3]([O-])([O-])[O-] [cobalt(II) perchlorate] + CC(=O)N(C)C
Settings	mass density [kg/m3]	speed of sound [m/s]
a1 = 0.029	942.693	1459.3
a1 = 0.04235	945.675	1461
a1 = 0.05501	948.505	1462.7
a1 = 0.08591	955.413	1466.7
a1 = 0.1144	961.778	1470.4
a1 = 0.1415	967.838	1474
a1 = 0.1692	974.036	1477.8
a1 = 0.1973	980.3	1481.6
a1 = 0.2214	985.701	1484.9

C[S+](C)[O-] [dimethyl sulfoxide] + [Cl][Mn][Cl]
a2 = 0
Settings	mass density [kg/m3]	speed of sound [m/s]
–	1095.19	1484.1

[Ni+2].[O-][Cl+3]([O-])([O-])[O-].[O-][Cl+3]([O-])([O-])[O-] [nickel perchlorate] + C[S+](C)[O-]
Settings	mass density [kg/m3]	speed of sound [m/s]
a1 = 0.01259	1097.89	1485
a1 = 0.02515	1100.6	1485.8
a1 = 0.03816	1103.4	1486.7
a1 = 0.051	1106.18	1487.5
a1 = 0.06341	1108.88	1488.4
a1 = 0.07675	1111.79	1489.2
a1 = 0.08797	1114.24	1490
a1 = 0.1004	1116.98	1491
a1 = 0.1125	1119.67	1491.7
a1 = 0.1251	1122.43	1492.6
